From EPA's ToxValDB 9.5 (doi:10.2903/j.efsa.2015.4020)

Experiments:
Typhlodromus pyri = assay: LR50; higher = less toxic; details: not reported; mortality
Aphidius rhopalosiphi = assay: LR50; higher = less toxic; details: not reported; mortality
Daphnia magna = details: chronic/long-term; duration: 21 days; reproduction
Pimephales promelas = details: mortality
Bibionidae = details: chronic/long-term; duration: 28 days
Folsomia candida = details: chronic/long-term; duration: 28 days
Hypoaspis aculeifer = details: chronic/long-term; duration: 28 days
Oryctolagus sp. = details: reproduction developmental; body weight
Neomysis kadiakensis = details: chronic/long-term; duration: 28 days; mortality
Rattus norvegicus = details: for NOAEL: body weight
Apis mellifera = details: acute, mortality

O=C1C=C(N(Cc2ccc(Cl)nc2)CC(F)F)CO1 [Flupyradifurone]
LR50 (Typhlodromus pyri): 17 g/ha
LR50 (Aphidius rhopalosiphi): < 0.5 g/ha
LC50 (Colinus virginianus; acute, oral, diet, mortality): > 470 mg/kg-day
LD50 (Colinus virginianus; acute, oral, mortality): 232 mg/kg-day
NOAEL (Colinus virginianus; reproduction developmental): 14 mg/kg-day
NOEC (Daphnia magna): 3.2 mg/L
LC50 (Pimephales promelas; acute, duration: 96 hours): > 70.5 µg/mL
NOEC (Pimephales promelas; chronic/long-term, duration: 35 days): 4.41 mg/L
NOEC (Bibionidae): 0.00681 mg/L
LC50 (Tagia sp.; acute, duration: 14 days, mortality): 186 mg/kg
NOEC (Tagia sp.; chronic/long-term, duration: 56 days): 1.5 mg/kg
NOEC (Folsomia candida): 1.44 mg/kg
NOEC (Hypoaspis aculeifer): 170 mg/kg
NOAEL (Oryctolagus sp.): 15 mg/kg-day
NOEC (Neomysis kadiakensis): 0.0132 mg/L
LD50 (Rattus norvegicus; acute, mortality): 1610 mg/kg-day
NOAEL (Rattus norvegicus; chronic): 6.4 mg/kg-day
NOAEL (Rattus norvegicus; reproduction developmental): 6.4 mg/kg-day
LD50 (Apis mellifera; dermal): 123 µg/piece
LD50 (Apis mellifera; oral, unspecified): 1.2 µg/piece
